Source: paper PMC5998028, “Synthesis, antimicrobial activity and conformational analysis of the class IIa bacteriocin pediocin PA-1 and analogs thereof” (Scientific Reports, 2018)

Legend:
M. luteus ATCC 10240 = experiment: Antimicrobial assay; assay type: cell-based, Micrococcus luteus; conditions: at up to 100 µM
[1] = test system: L. ivanovii HPB28, L. monocytogenes LSD530, L. monocytogenes ATCC 19111; conditions: L. ivanovii HPB28, L. monocytogenes LSD530 and ATCC 19111; micro-dilution, 37 °C, 18 h
P. acidilactici UL5 = experiment: MIC micro-dilution assay; assay type: cell-based, Pediococcus acidilactici; conditions: P. acidilactici UL5 (pediocin producer, immune), 37 °C, 18 h, absorbance 595 nm, means of two independent experiments in duplicate
L. ivanovii HPB28 = conditions: micro-dilution, twofold serial dilutions, 37 °C, 18 h, absorbance 595 nm, means of two independent experiments in duplicate
[2] = test system: L. monocytogenes ATCC 19111; conditions: micro-dilution, twofold serial dilutions, 37 °C, 18 h, absorbance 595 nm, means of two independent experiments in duplicate
[3] = test system: L. monocytogenes ATCC 19111; conditions: L. monocytogenes ATCC 19111, soft agar TSBYE; 75 µL of 1 mg/mL peptide (or UL5 culture supernatant) per well; 37 °C, 18 h
L. monocytogenes LSD530 = conditions: micro-dilution, twofold serial dilutions, 37 °C, 18 h, absorbance 595 nm, means of two independent experiments in duplicate
[4] = test system: Bifidobacterium animalis ATCC 27536; experiment: MIC micro-dilution assay; assay type: cell-based; conditions: RCM, 37 °C, 18 h
[5] = test system: Staphylococcus aureus ATCC 25923; experiment: MIC micro-dilution assay; assay type: cell-based; conditions: MH, 37 °C, 18 h
[6] = test system: Escherichia coli ATCC 25922; experiment: MIC micro-dilution assay; assay type: cell-based; conditions: MH, 37 °C, 18 h
[7] = test system: Bacillus cereus LSPQ 2872; experiment: MIC micro-dilution assay; assay type: cell-based; conditions: MH, 37 °C, 18 h
[8] = test system: Staphylococcus aureus ATCC 6538; experiment: MIC micro-dilution assay; assay type: cell-based; conditions: MH, 37 °C, 18 h
[9] = test system: Lactococcus lactis ATCC 19257; experiment: MIC micro-dilution assay; assay type: cell-based; conditions: MRS, 37 °C, 18 h
[10] = test system: Enterococcus hirae ATCC 10541; experiment: MIC micro-dilution assay; assay type: cell-based; conditions: BHI, 37 °C, 18 h
[11] = test system: Clostridium tyrobutiricum ATCC 25755; experiment: MIC micro-dilution assay; assay type: cell-based, Clostridium tyrobutyricum; conditions: RCM, 37 °C, 18 h
[12] = test system: Staphylococcus aureus ATCC 29213; experiment: MIC micro-dilution assay; assay type: cell-based; conditions: MH, 37 °C, 18 h
[13] = test system: Lactobacillus acidophilus ATCC 4356; experiment: MIC micro-dilution assay; assay type: cell-based; conditions: MRS, 37 °C, 18 h
C. perfringens = assay type: cell-based, Clostridium perfringens; conditions: radial diffusion assays, RCM
[14] = test system: Enteroccocus faecalis ATCC 27275; experiment: MIC micro-dilution assay; assay type: cell-based, Enterococcus faecalis; conditions: BHI, 37 °C, 18 h
[15] = test system: Bacillus subtilis ATCC 6633; experiment: MIC micro-dilution assay; assay type: cell-based; conditions: MH, 37 °C, 18 h
[16] = test system: Streptococcus thermophilus RBL 18 FYE 41; experiment: MIC micro-dilution assay; assay type: cell-based; conditions: MH, 37 °C, 18 h
[17] = test system: Bacillus coagulans ATCC 7050; experiment: MIC micro-dilution assay; assay type: cell-based; conditions: MH, 37 °C, 18 h

CC[C@H](C)[C@@H]1NC(=O)[C@@H](NC(=O)[C@@H](NC(=O)[C@@H](NC(=O)[C@H](C)NC(=O)[C@H](CCCCN)NC(=O)CNC(=O)[C@H](Cc2c[nH]c3ccccc23)NC(=O)[C@H](CC(=O)O)NC(=O)[C@@H](NC(=O)[C@H](CO)NC(=O)[C@@H]2CSSC[C@H](NC(=O)[C@@H](NC(=O)[C@@H](NC(=O)CNC(=O)[C@H](CC(N)=O)NC(=O)CNC(=O)[C@H](Cc3ccc(O)cc3)NC(=O)[C@H](Cc3ccc(O)cc3)NC(=O)[C@@H](N)CCCCN)C(C)C)[C@@H](C)O)C(=O)NCC(=O)N[C@@H](CCCCN)C(=O)N[C@@H](Cc3c[nH]cn3)C(=O)N[C@@H](CO)C(=O)N2)C(C)C)[C@@H](C)O)[C@@H](C)O)CSSC[C@@H](C(=O)O)NC(=O)[C@H](CCCCN)NC(=O)[C@H](Cc2c[nH]cn2)NC(=O)[C@H](CC(N)=O)NC(=O)CNC(=O)[C@H](CCC(N)=O)NC(=O)[C@H](Cc2c[nH]cn2)NC(=O)CNC(=O)CNC(=O)[C@H]([C@@H](C)O)NC(=O)[C@H](C)NC(=O)[C@H](Cc2c[nH]c3ccccc23)NC(=O)[C@H](C)NC(=O)[C@H](CCSC)NC(=O)[C@H](C)NC(=O)CNC(=O)[C@H](CC(N)=O)NC(=O)[C@H](CC(N)=O)NC(=O)[C@H]([C@@H](C)CC)NC1=O [3c, pediocin PA-1]
activity against M. luteus ATCC 10240 (M. luteus ATCC 10240): no activity

KYYGNGVTAGKHSASVDWGKATTAIINNGAMAWATGGHQGNHKA [compound 6]
MIC, range over the Listeria target strains [1]: completely inactive | Minimal inhibitory concentration (P. acidilactici UL5): n.a. (no activity detected at concentrations up to 100 µM) | Minimal inhibitory concentration (L. ivanovii HPB28): n.a.^a (no activity detected at concentrations up to 100 µM) | Minimal inhibitory concentration [2]: n.a. (no activity detected at concentrations up to 100 µM) | Inhibition zone diameter [3]: no activity | Minimal inhibitory concentration (L. monocytogenes LSD530): n.a. (no activity detected at concentrations up to 100 µM)

CC[C@H](C)[C@H](NC(=O)[C@H](CS)NC(=O)[C@@H](NC(=O)[C@@H](NC(=O)[C@H](C)NC(=O)[C@H](CCCCN)NC(=O)CNC(=O)[C@H](Cc1c[nH]c2ccccc12)NC(=O)[C@H](CC(=O)O)NC(=O)[C@@H](NC(=O)[C@H](CO)NC(=O)[C@H](CS)NC(=O)[C@H](CO)NC(=O)[C@H](Cc1c[nH]cn1)NC(=O)[C@H](CCCCN)NC(=O)CNC(=O)[C@H](CS)NC(=O)[C@@H](NC(=O)[C@@H](NC(=O)CNC(=O)[C@H](CC(N)=O)NC(=O)CNC(=O)[C@H](Cc1ccc(O)cc1)NC(=O)[C@H](Cc1ccc(O)cc1)NC(=O)[C@@H](N)CCCCN)C(C)C)[C@@H](C)O)C(C)C)[C@@H](C)O)[C@@H](C)O)C(=O)N[C@H](C(=O)N[C@@H](CC(N)=O)C(=O)N[C@@H](CC(N)=O)C(=O)NCC(=O)N[C@@H](C)C(=O)N[C@@H](CC(C)C)C(=O)N[C@@H](C)C(=O)N[C@@H](Cc1c[nH]c2ccccc12)C(=O)N[C@@H](C)C(=O)N[C@H](C(=O)NCC(=O)NCC(=O)N[C@@H](Cc1c[nH]cn1)C(=O)N[C@@H](CCC(N)=O)C(=O)NCC(=O)N[C@@H](CC(N)=O)C(=O)N[C@@H](Cc1c[nH]cn1)C(=O)N[C@@H](CCCCN)C(=O)N[C@@H](CS)C(=O)O)[C@@H](C)O)[C@@H](C)CC [compound 4]
MIC [4]: n.a. (no activity detected at concentrations up to 100 µM) | MIC [5]: n.a. (no activity detected at concentrations up to 100 µM) | MIC [6]: n.a. (no activity detected at concentrations up to 100 µM) | MIC [7]: n.a. (no activity detected at concentrations up to 100 µM) | MIC [8]: n.a. (no activity detected at concentrations up to 100 µM) | MIC [9]: n.a. (no activity detected at concentrations up to 100 µM) | MIC [10]: n.a. (no activity detected at concentrations up to 100 µM) | MIC [11]: n.a. (no activity detected at concentrations up to 100 µM) | MIC [12]: n.a. (no activity detected at concentrations up to 100 µM) | MIC [13]: n.a. (no activity detected at concentrations up to 100 µM) | inhibition diameters against C. perfringens, range over two strains (C. perfringens): 22–25 mm | MIC [14]: n.a. (no activity detected at concentrations up to 100 µM) | MIC [15]: n.a. (no activity detected at concentrations up to 100 µM) | MIC [16]: n.a. (no activity detected at concentrations up to 100 µM) | MIC [17]: n.a. (no activity detected at concentrations up to 100 µM)
